# Laboratory results as given in patent US9469650B2, “Melampomagnolide B derivatives” (BOARD OF TRUSTEES OF THE UNIVERSITY OF ARKANSAS, priority 2013, dated 2016).
# Read-outs that look alike come from different tables or passages of the source.
# Experiments:
# NCI-H23 = test: panel of 60 human tumor cell lines, growth inhibition (Non-Small Cell Lung Cancer); settings: NCI-H23
# MDA-MB-231/ATCC = test: panel of 60 human tumor cell lines, growth inhibition (Breast Cancer); settings: MDA-MB-231/ATCC
# KM12 = test: panel of 60 human tumor cell lines, growth inhibition (Colon Cancer); settings: KM12
# CCRF-CEM = test: panel of 60 human tumor cell lines, growth inhibition (Leukemia)
# NCI-H460 = test: panel of 60 human tumor cell lines, growth inhibition (Non-Small Cell Lung Cancer); settings: NCI-H460
# SF-539 = test: panel of 60 human tumor cell lines, growth inhibition (CNS Cancer); settings: SF-539
# HT29 = test: panel of 60 human tumor cell lines, growth inhibition (Colon Cancer); settings: HT29
# ACHN = test: panel of 60 human tumor cell lines, growth inhibition (Renal Cancer)
smiles,measurement,setting,value
C=C1C(=O)O[C@H]2[C@H]1CC/C(COC(=O)N1CCN(C)CC1)=C\CC[C@@]1(C)O[C@@H]21 [JVM 2-44],GI50,NCI-H23,11.8 µM
same,TGI,NCI-H23,3.12E−5
same,Mean Optical Densities,NCI-H23; Log10 Concentration −4.0,0.244
same,Percent Growth,NCI-H23; Log10 Concentration −4.0,−60%
same,Mean Optical Densities,NCI-H23; Log10 Concentration −5.0,1.347
same,Percent Growth,NCI-H23; Log10 Concentration −5.0,58%
same,Mean Optical Densities,NCI-H23; Log10 Concentration −6.0,1.872
same,Percent Growth,NCI-H23; Log10 Concentration −6.0,100%
same,Mean Optical Densities,NCI-H23; Log10 Concentration −7.0,1.838
same,Percent Growth,NCI-H23; Log10 Concentration −7.0,97%
same,Mean Optical Densities,NCI-H23; Log10 Concentration −8.0,1.849
same,Percent Growth,NCI-H23; Log10 Concentration −8.0,98%
same,GI50,MDA-MB-231/ATCC,10.4 µM
same,TGI,MDA-MB-231/ATCC,2.64E−5
same,Mean Optical Densities,MDA-MB-231/ATCC; Log10 Concentration −4.0,0.200
same,Percent Growth,MDA-MB-231/ATCC; Log10 Concentration −4.0,−72%
same,Mean Optical Densities,MDA-MB-231/ATCC; Log10 Concentration −5.0,1.153
same,Percent Growth,MDA-MB-231/ATCC; Log10 Concentration −5.0,52%
same,Mean Optical Densities,MDA-MB-231/ATCC; Log10 Concentration −6.0,1.525
same,Percent Growth,MDA-MB-231/ATCC; Log10 Concentration −6.0,95%
same,Mean Optical Densities,MDA-MB-231/ATCC; Log10 Concentration −7.0,1.568
same,Percent Growth,MDA-MB-231/ATCC; Log10 Concentration −7.0,106%
same,Mean Optical Densities,MDA-MB-231/ATCC; Log10 Concentration −8.0,1.619
same,Percent Growth,MDA-MB-231/ATCC; Log10 Concentration −8.0,106%
same,GI50,HL-60(TB),2.53 µM
same,TGI,HL-60(TB),9.30E−6
same,Mean Optical Densities,HL-60(TB); Log10 Concentration −4.0,0.925
same,Percent Growth,HL-60(TB); Log10 Concentration −4.0,−37%
same,Mean Optical Densities,HL-60(TB); Log10 Concentration −5.0,1.432
same,Percent Growth,HL-60(TB); Log10 Concentration −5.0,−3%
same,Mean Optical Densities,HL-60(TB); Log10 Concentration −6.0,2.594
same,Mean Optical Densities,HL-60(TB); Log10 Concentration −7.0,2.607
same,Percent Growth,HL-60(TB); Log10 Concentration −7.0,87%
same,Mean Optical Densities,HL-60(TB); Log10 Concentration −8.0,2.812
same,Percent Growth,HL-60(TB); Log10 Concentration −8.0,102%
same,CC50,HL-60(TB); read-out: LC50,> 100 µM
same,GI50,KM12,14.2 µM
same,TGI,KM12,3.13E−5
same,Mean Optical Densities,KM12; Log10 Concentration −4.0,0.105
same,Percent Growth,KM12; Log10 Concentration −4.0,−74%
same,Mean Optical Densities,KM12; Log10 Concentration −5.0,1.680
same,Percent Growth,KM12; Log10 Concentration −5.0,72%
same,Mean Optical Densities,KM12; Log10 Concentration −6.0,2.184
same,Percent Growth,KM12; Log10 Concentration −6.0,101%
same,Mean Optical Densities,KM12; Log10 Concentration −7.0,2.151
same,Percent Growth,KM12; Log10 Concentration −7.0,99%
same,Mean Optical Densities,KM12; Log10 Concentration −8.0,2.117
same,Percent Growth,KM12; Log10 Concentration −8.0,97%
same,GI50,CCRF-CEM,3.06 µM
same,TGI,CCRF-CEM,1.84E−5
same,Mean Optical Densities,CCRF-CEM; Log10 Concentration −4.0,0.393
same,Percent Growth,CCRF-CEM; Log10 Concentration −4.0,−25%
same,Mean Optical Densities,CCRF-CEM; Log10 Concentration −5.0,0.689
same,Percent Growth,CCRF-CEM; Log10 Concentration −5.0,9%
same,Mean Optical Densities,CCRF-CEM; Log10 Concentration −6.0,2.185
same,Percent Growth,CCRF-CEM; Log10 Concentration −6.0,89%
same,Mean Optical Densities,CCRF-CEM; Log10 Concentration −7.0,2.250
same,Percent Growth,CCRF-CEM; Log10 Concentration −7.0,92%
same,Mean Optical Densities,CCRF-CEM; Log10 Concentration −8.0,2.265
same,Percent Growth,CCRF-CEM; Log10 Concentration −8.0,93%
same,GI50,NCI-H460,20.3 µM
same,TGI,NCI-H460,5.67E−5
same,Mean Optical Densities,NCI-H460; Log10 Concentration −4.0,0.202
same,Percent Growth,NCI-H460; Log10 Concentration −4.0,−28%
same,Mean Optical Densities,NCI-H460; Log10 Concentration −5.0,2.401
same,Percent Growth,NCI-H460; Log10 Concentration −5.0,84%
same,Mean Optical Densities,NCI-H460; Log10 Concentration −6.0,2.741
same,Percent Growth,NCI-H460; Log10 Concentration −6.0,98%
same,Mean Optical Densities,NCI-H460; Log10 Concentration −7.0,2.825
same,Percent Growth,NCI-H460; Log10 Concentration −7.0,101%
same,Mean Optical Densities,NCI-H460; Log10 Concentration −8.0,2.830
same,Percent Growth,NCI-H460; Log10 Concentration −8.0,101%
same,GI50,SF-539,5.01 µM
same,TGI,SF-539,1.99E−5
same,Mean Optical Densities,SF-539; Log10 Concentration −4.0,0.121
same,Percent Growth,SF-539; Log10 Concentration −4.0,−79%
same,Mean Optical Densities,SF-539; Log10 Concentration −5.0,1.049
same,Percent Growth,SF-539; Log10 Concentration −5.0,34%
same,Mean Optical Densities,SF-539; Log10 Concentration −6.0,1.761
same,Percent Growth,SF-539; Log10 Concentration −6.0,87%
same,Mean Optical Densities,SF-539; Log10 Concentration −7.0,1.799
same,Percent Growth,SF-539; Log10 Concentration −7.0,89%
same,Mean Optical Densities,SF-539; Log10 Concentration −8.0,1.915
same,Percent Growth,SF-539; Log10 Concentration −8.0,97%
same,GI50,HT29,5.54 µM
same,TGI,HT29,1.95E−5
same,Mean Optical Densities,HT29; Log10 Concentration −4.0,0.873
same,Percent Growth,HT29; Log10 Concentration −4.0,−70%
same,Mean Optical Densities,HT29; Log10 Concentration −5.0,0.502
same,Percent Growth,HT29; Log10 Concentration −5.0,28%
same,Mean Optical Densities,HT29; Log10 Concentration −6.0,1.268
same,Percent Growth,HT29; Log10 Concentration −6.0,112%
same,Mean Optical Densities,HT29; Log10 Concentration −7.0,1.248
same,Percent Growth,HT29; Log10 Concentration −7.0,110%
same,Mean Optical Densities,HT29; Log10 Concentration −8.0,1.216
same,Percent Growth,HT29; Log10 Concentration −8.0,107%
same,GI50,ACHN,3.83 µM
same,TGI,ACHN,1.59E−5
same,Mean Optical Densities,ACHN; Log10 Concentration −4.0,0.112
same,Percent Growth,ACHN; Log10 Concentration −4.0,−77%
same,Mean Optical Densities,ACHN; Log10 Concentration −5.0,0.773
same,Percent Growth,ACHN; Log10 Concentration −5.0,19%
same,Mean Optical Densities,ACHN; Log10 Concentration −6.0,1.883
same,Percent Growth,ACHN; Log10 Concentration −6.0,93%
same,Mean Optical Densities,ACHN; Log10 Concentration −7.0,1.961
same,Percent Growth,ACHN; Log10 Concentration −7.0,9B
same,Mean Optical Densities,ACHN; Log10 Concentration −8.0,2.010
same,Percent Growth,ACHN; Log10 Concentration −8.0,101%
